Laboratory results from article PMC6171243, “Suppression of lung cancer progression by isoliquiritigenin through its metabolite 2, 4, 2’, 4’-Tetrahydroxychalcone” (Journal of Experimental & Clinical Cancer Research : CR, 2018).

Target: Src (Homo sapiens, UniProt P12931)
Test: cell-free ADP-Glo Src kinase assay (Promega)
Format: biochemical

Src, sequence (P12931 2-536): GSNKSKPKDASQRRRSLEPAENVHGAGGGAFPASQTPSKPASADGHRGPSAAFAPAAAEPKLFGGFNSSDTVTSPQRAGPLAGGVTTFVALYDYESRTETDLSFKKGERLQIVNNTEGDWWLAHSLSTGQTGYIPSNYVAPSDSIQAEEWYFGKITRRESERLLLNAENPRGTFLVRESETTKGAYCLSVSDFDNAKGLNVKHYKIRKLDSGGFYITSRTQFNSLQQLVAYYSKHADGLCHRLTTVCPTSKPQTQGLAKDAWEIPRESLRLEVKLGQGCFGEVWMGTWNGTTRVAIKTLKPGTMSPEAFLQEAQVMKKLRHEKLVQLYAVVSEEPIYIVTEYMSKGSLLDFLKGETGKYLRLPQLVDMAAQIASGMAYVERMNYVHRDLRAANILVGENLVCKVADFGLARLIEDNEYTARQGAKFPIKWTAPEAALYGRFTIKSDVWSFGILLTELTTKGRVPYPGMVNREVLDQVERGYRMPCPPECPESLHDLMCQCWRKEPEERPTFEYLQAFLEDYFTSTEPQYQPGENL

## O=C(/C=C/c1ccc(O)cc1O)c1ccc(O)cc1O [THC, 2,4, 2′, 4′-tetrahydroxychalcone]
  IC50: 1440 nM
